The test system of this experiment is P388 leukemia ip, CD2F1 mice, survival T/C. In words: NCI In Vivo Anticancer Drug Screen. Data for tumor model P388 Leukemia (intraperitoneal) in CD2F1 (CDF1) mice. The settings on record: endpoint: median survival time, higher = longer survival. The procedure, abridged: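 Mice carrying the transplanted tumor received test compound or vehicle. Survival was recorded in each group, and the value is the treated-group measurement divided by that of the vehicle-treated control group.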

[1] abbreviates: dose: 50.0 mg/kg/injection, schedule: Q01DX009 (ip), vehicle: saline.
Setting [2] is: dose: 100.0 mg/kg/injection, schedule: Q01DX009 (ip), vehicle: saline.
Setting [3] is: dose: 200.0 mg/kg/injection, schedule: Q01DX009 (ip), vehicle: saline.
Where [4] appears, read: dose: 50.0 mg/kg/injection, schedule: Q01DX005 (ip), vehicle: saline.
[5] abbreviates: dose: 100.0 mg/kg/injection, schedule: Q01DX005 (ip), vehicle: saline.
The mark [6] stands for this setting: dose: 50.0 mg/kg/injection, schedule: Q01DX005 (ip), vehicle: saline with Tween-80.
[7] abbreviates: dose: 100.0 mg/kg/injection, schedule: Q01DX005 (ip), vehicle: saline with Tween-80.
Where [8] appears, read: dose: 15.0 mg/kg/injection, schedule: Q01DX005 (ip), vehicle: saline with Tween-80.
Setting [9] is: dose: 60.0 mg/kg/injection, schedule: Q01DX005 (ip), vehicle: saline.
[10] abbreviates: dose: 120.0 mg/kg/injection, schedule: Q01DX005 (ip), vehicle: saline.
The mark [11] stands for this setting: dose: 240.0 mg/kg/injection, schedule: Q01DX005 (ip), vehicle: saline.
Setting [12] is: dose: 60.0 mg/kg/injection, schedule: Q01DX005 (ip), vehicle: saline with Tween-80.

The text below walks through data of PubChem BioAssay AID330 (DTP/NCI, 2004).

Where “and” joins values, the source holds several entries; their conditions need not be identical. Equal values may be shown once. Toxic doses and inconclusive results are not listed.

In the case of `COc1ccc(C(=O)CSC(=S)N2CCCCC2)cc1`, the T/C (dose: 50.0 mg/kg/injection, schedule: Q01DX009 (ip), vehicle: Klucel (hydroxypropylcellulose) (HPC)) was 86 % of control and the T/C (dose: 100.0 mg/kg/injection, schedule: Q01DX009 (ip), vehicle: Klucel (hydroxypropylcellulose) (HPC)) is 86 % of control.

With `O=C(NCC1CC1)NC(=O)c1c(F)cccc1Cl`, the T/C was 102 % of control (dose: 60.0 mg/kg/injection, schedule: Q01DX005 (ip), vehicle: Klucel (hydroxypropylcellulose) (HPC)); 106 % of control (dose: 120.0 mg/kg/injection, schedule: Q01DX005 (ip), vehicle: Klucel (hydroxypropylcellulose) (HPC)); 106 % of control (dose: 240.0 mg/kg/injection, schedule: Q01DX005 (ip), vehicle: Klucel (hydroxypropylcellulose) (HPC)).

Turning to `COc1cccc2c1C(=O)c1c(O)c3c(c(O)c1C2=O)C[C@@](O)(C(C)O)C[C@@H]3OC1CC(N(Cc2ccccc2)Cc2ccccc2)C(O)C(C)O1` (stereo partly drawn), the T/C (dose: 4.7 mg/kg/injection, schedule: Q04DX003 (ip), vehicle: water) was 121 % of control; the T/C (dose: 6.25 mg/kg/injection, schedule: Q01DX009 (ip), vehicle: water) was 165 % of control; the T/C (dose: 12.5 mg/kg/injection, schedule: Q01DX009 (ip), vehicle: water) was 228 % of control and 233 % of control; the T/C (dose: 25.0 mg/kg/injection, schedule: Q01DX009 (ip), vehicle: water) was 97 % of control; the T/C (dose: 25.0 mg/kg/injection, schedule: Q04DX003 (ip), vehicle: water) was 194 % of control; the T/C (dose: 37.5 mg/kg/injection, schedule: Q04DX003 (ip), vehicle: water) is 106 % of control. Moreover, the T/C (dose: 50.0 mg/kg/injection, schedule: Q04DX003 (ip), vehicle: water) is 233 % of control and the T/C (dose: 75.0 mg/kg/injection, schedule: Q04DX003 (ip), vehicle: water) was 116 % of control.

For `CCNC(=O)n1cccc(OC)c1=O`, the T/C runs as follows: under setting [1], 101 % of control and 107 % of control; under setting [2], 109 % of control and 114 % of control and 119 % of control; under setting [3], 111 % of control and 116 % of control; (dose: 300.0 mg/kg/injection, schedule: Q01DX009 (ip), vehicle: saline) 109 % of control.

Turning to `Cc1cc(O)c(O)cc1C/C=C/c1ccccc1`, the T/C is 101 % of control (dose: 2.5 mg/kg/injection, schedule: Q01DX009 (ip), vehicle: saline with Tween-80); 100 % of control (dose: 5.0 mg/kg/injection, schedule: Q01DX009 (ip), vehicle: saline with Tween-80); 100 % of control (dose: 10.0 mg/kg/injection, schedule: Q01DX009 (ip), vehicle: saline with Tween-80).

In the case of `OCC1OC(O)C(Cl)(Cl)C(O)C1O` (stereo not drawn), the T/C is 107 % of control under setting [1], 117 % of control under setting [2] and 112 % of control under setting [3].

Consider `CCOC(=O)N(C)N(C)C(=O)OCC`, for which the T/C was 100 % of control under setting [4]; 100 % of control under setting [5]; 100 % of control (dose: 200.0 mg/kg/injection, schedule: Q01DX005 (ip), vehicle: saline).

As for `CC(C)CCC[C@@H](C)[C@H]1CC[C@H]2[C@@H]3CC=C4C[C@@H](OC(=O)Cc5ccc(N(CCCl)CCCl)cc5)CC[C@]4(C)[C@H]3CC[C@]12C`, the T/C (dose: 50.0 mg/kg/injection, schedule: Q01DX010 (ip), vehicle: Klucel (hydroxypropylcellulose) (HPC)) was 101 % of control; the T/C (dose: 100.0 mg/kg/injection, schedule: Q01DX010 (ip), vehicle: Klucel (hydroxypropylcellulose) (HPC)) is 99 % of control; the T/C (dose: 200.0 mg/kg/injection, schedule: Q01DX010 (ip), vehicle: Klucel (hydroxypropylcellulose) (HPC)) is 101 % of control; the T/C (dose: 400.0 mg/kg/injection, schedule: Q01DX010 (ip), vehicle: Klucel (hydroxypropylcellulose) (HPC)) was 105 % of control; the T/C (dose: 800.0 mg/kg/injection, schedule: Q01DX010 (ip), vehicle: Klucel (hydroxypropylcellulose) (HPC)) was 92 % of control.

As to `O=C(N=Nc1ccccc1)NC1CCCCC1`, the T/C by setting is: under setting [6], 100 % of control; under setting [7], 101 % of control; (dose: 200.0 mg/kg/injection, schedule: Q01DX005 (ip), vehicle: saline with Tween-80) 100 % of control.

Regarding `CC(=O)OCC1(OC(=O)CC(C)C)COC(O)C2C(C=O)=CC=C21` (stereo not drawn), the T/C runs as follows: (dose: 3.12 mg/kg/injection, schedule: Q01DX005 (ip), vehicle: Klucel (hydroxypropylcellulose) (HPC)) 102 % of control; (dose: 6.25 mg/kg/injection, schedule: Q01DX005 (ip), vehicle: Klucel (hydroxypropylcellulose) (HPC)) 100 % of control; (dose: 12.5 mg/kg/injection, schedule: Q01DX005 (ip), vehicle: Klucel (hydroxypropylcellulose) (HPC)) 101 % of control.

In the case of `CC1CC(C#N)=C(NC#N)NC1=O` (stereo not drawn), the T/C is 108 % of control (dose: 7.5 mg/kg/injection, schedule: Q01DX005 (ip), vehicle: saline with Tween-80); 101 % of control (dose: 7.5 mg/kg/injection, schedule: Q01DX005 (ip), vehicle: saline); 111 % of control under setting [8]; 106 % of control (dose: 15.0 mg/kg/injection, schedule: Q01DX005 (ip), vehicle: saline).

Regarding `COc1ccc2oc(-c3ccc(Cl)cc3)c(N3CCN(C)CC3)c2c1`, the T/C is, setting by setting: under setting [9], 102 % of control and 93 % of control and 97 % of control; under setting [10], 102 % of control and 103 % of control and 105 % of control; under setting [11], 122 % of control and 96 % of control.

Take `N#CCc1ccccc1Br`: the T/C under setting [6] is 93 % of control and the T/C under setting [7] was 101 % of control.

Take `[B-]([C+]1CCCCC1)N1C=CC=CC1`: the T/C (dose: 50.0 mg/kg/injection, schedule: Q01DX005 (ip), vehicle: Klucel (hydroxypropylcellulose) (HPC)) was 100 % of control; the T/C (dose: 100.0 mg/kg/injection, schedule: Q01DX005 (ip), vehicle: Klucel (hydroxypropylcellulose) (HPC)) was 98 % of control; the T/C (dose: 200.0 mg/kg/injection, schedule: Q01DX005 (ip), vehicle: Klucel (hydroxypropylcellulose) (HPC)) was 97 % of control.

Turning to `COc1cc(C)c(/C(=N/O)n2nnc(-c3ccccc3)n2)c(C)c1`, the T/C under setting [8] is 98 % of control; the T/C (dose: 30.0 mg/kg/injection, schedule: Q01DX005 (ip), vehicle: saline with Tween-80) is 100 % of control; the T/C under setting [12] is 100 % of control and 91 % of control.

On to `O=C(Nc1ccc(Cl)cc1)Nc1nnc2nc(C3(c4nc5nnc(NC(=O)Nc6ccc(Cl)cc6)n5[nH]c4=O)Cc4ccccc4C3=O)c(=O)[nH]n12`, for which the T/C by setting is: under setting [12], 103 % of control; (dose: 120.0 mg/kg/injection, schedule: Q01DX005 (ip), vehicle: saline with Tween-80) 107 % of control; (dose: 240.0 mg/kg/injection, schedule: Q01DX005 (ip), vehicle: saline with Tween-80) 98 % of control.

For the molecule `Cc1[nH]c(=O)[nH]c(=O)c1/C=C/C(=O)NC(CO)CS(=O)CS(C)=O` (stereo not drawn), the T/C reads like this: (dose: 1.2 mg/kg/injection, schedule: Q01DX009 (ip), vehicle: water) 119 % of control; (dose: 2.2 mg/kg/injection, schedule: Q01DX009 (ip), vehicle: water) 122 % of control; (dose: 2.4 mg/kg/injection, schedule: Q01DX009 (ip), vehicle: water) 119 % of control.

As for `O=C(c1ccc(-c2ccccc2)cc1)C(Br)C(Br)c1ccccc1` (stereo not drawn), the T/C is 90 % of control (dose: 25.0 mg/kg/injection, schedule: Q01DX009 (ip), vehicle: other); 90 % of control (dose: 100.0 mg/kg/injection, schedule: Q01DX009 (ip), vehicle: other); 101 % of control (dose: 200.0 mg/kg/injection, schedule: Q01DX009 (ip), vehicle: other); 116 % of control (dose: 400.0 mg/kg/injection, schedule: Q01DX009 (ip), vehicle: other).

Consider `COc1cc(NCC(C)(O)CN2CCCCC2)c2ncccc2c1` (stereo not drawn), for which the T/C runs as follows: (dose: 12.5 mg/kg/injection, schedule: Q01DX005 (ip), vehicle: saline) 94 % of control; (dose: 25.0 mg/kg/injection, schedule: Q01DX005 (ip), vehicle: saline) 98 % of control; under setting [4], 93 % of control and 97 % of control.

In the case of `COc1cccc(N=Nc2c(N)nc(N)nc2N)c1`, the T/C was 100 % of control (dose: 12.5 mg/kg/injection, schedule: Q01DX009 (ip), vehicle: saline with Tween-80); 108 % of control (dose: 25.0 mg/kg/injection, schedule: Q01DX009 (ip), vehicle: saline with Tween-80); 117 % of control (dose: 50.0 mg/kg/injection, schedule: Q01DX009 (ip), vehicle: saline with Tween-80).

On to `CC1CNCC(C)N1Cc1ccccc1` (stereo not drawn), for which the T/C under setting [4] was 108 % of control and the T/C under setting [5] is 99 % of control.

On to `O=c1cc(N2CCOCC2)n2ccccc2n1`, for which the T/C reads like this: under setting [9], 96 % of control; under setting [10], 102 % of control; under setting [11], 96 % of control.
